Source: US20250228239A1, “MOLECULES HAVING PESTICIDAL UTILITY, AND INTERMEDIATES, COMPOSITIONS, AND PROCESSES, RELATED THERETO” (priority 2024, published 2025)

Legend:
[1] = system: Cabbage Looper (Trichoplusia ni, TRIPNI); test: Bioassays on Cabbage Looper (CL), 128-well diet tray assay; assay type: in vivo; settings: Trichoplusia ni; Table ABC: Biological Results; species CL; read-out: CL
Method: (§1) Certain molecules disclosed in this document were tested against BAW and CL using procedures described in the following examples. In the reporting of the results, the “BAW & CL Rating Table” was used (See Table Section).
Bioassays on CL were conducted using a 128-well diet tray assay. One to five second instar CL larvae were placed in each well (3 mL) of the diet tray that had been previously filled with 1 mL of artificial diet to which 50 μg/cm^2 of the test molecule (dissolved in 50 μL of 90:10 acetone-water mixture) had been applied (to each of eight wells) and then allowed to dry. Trays were covered with a clear self-adhesive cover, vented to allow gas exchange, and held at 25° C., 14:10 light-dark for five to seven days. Percent mortality was recorded for the larvae in each well; activity in the eight wells was then averaged. The results are indicated in the table entitled “Table ABC: Biological Results” (See Table Section).

[2] = system: Beet Armyworm (Spodoptera exigua, LAPHEG); test: Bioassays on Beet Armyworm (BAW), 128-well diet tray assay; assay type: in vivo; settings: Spodoptera exigua; Table ABC: Biological Results; species BAW; read-out: BAW
Method: as §1
Bioassays on BAW were conducted using a 128-well diet tray assay. One to five second instar BAW larvae were placed in each well (3 mL) of the diet tray that had been previously filled with 1 mL of artificial diet to which 50 μg/cm^2 of the test molecule (dissolved in 50 μL of 90:10 acetone-water mixture) had been applied (to each of eight wells) and then allowed to dry. Trays were covered with a clear self-adhesive cover, vented to allow gas exchange, and held at 25° C., 14:10 light-dark for five to seven days. Percent mortality was recorded for the larvae in each well; activity in the eight wells was then averaged. The results are indicated in the table entitled “Table ABC: Biological Results” (See Table Section).

O=C(Nc1cc(F)c(NC(=O)C(F)F)c(F)c1)c1cc(NC(=O)[C@H]2[C@H](c3ccc(Cl)c(Cl)c3)C2(Cl)Cl)ccc1Cl (relative stereo) [F1122, trans-2-Chloro-5-(2,2-dichloro-3-(3,4-dichlorophenyl)cyclopropane-1-carboxamido)-N-(4-(2,2-difluoroacetamido)-3,5-difluorophenyl)benzamide] showed a pest or weed control at 50 µg/cm2 [1] of 50 to 100% and a pest or weed control at 50 µg/cm2 [2] of 50 to 100%.

O=C(Nc1ccc(F)cc1NC(=O)C(F)F)c1cc(NC(=O)[C@H]2[C@H](c3ccc(Cl)c(Cl)c3)C2(Cl)Cl)ccc1Cl (relative stereo) [F1123, trans-2-Chloro-5-(2,2-dichloro-3-(3,4-dichlorophenyl)cyclopropane-1-carboxamido)-N-(2-(2,2-difluoroacetamido)-4-fluorophenyl)benzamide] showed a pest or weed control at 50 µg/cm2 [1] of 50 to 100% and a pest or weed control at 50 µg/cm2 [2] of 50 to 100%.

Compound CC(=O)Nc1c(F)cc(NC(=O)c2cc(NC(=O)[C@H]3[C@H](c4ccc(Cl)c(Cl)c4)C3(Cl)Cl)ccc2Cl)cc1F (relative stereo) [F1124, trans-N-(4-Acetamido-3,5-difluorophenyl)-2-chloro-5-(2,2-dichloro-3-(3,4-dichlorophenyl)cyclopropane-1-carboxamido)benzamide] has a pest or weed control at 50 µg/cm2 [1] of 50 to 100% and a pest or weed control at 50 µg/cm2 [2] of 50 to 100%.

Compound CC(=O)Nc1cc(F)ccc1NC(=O)c1cc(NC(=O)[C@H]2[C@H](c3ccc(Cl)c(Cl)c3)C2(Cl)Cl)ccc1Cl (relative stereo) [F1125, trans-N-(2-Acetamido-4-fluorophenyl)-2-chloro-5-(2,2-dichloro-3-(3,4-dichlorophenyl)cyclopropane-1-carboxamido)benzamide] has a pest or weed control at 50 µg/cm2 [1] of 50 to 100% and a pest or weed control at 50 µg/cm2 [2] of 50 to 100%.

Compound CC(=O)Nc1c(C)ccc(NC(=O)c2cc(NC(=O)[C@H]3[C@H](c4cc(Cl)cc(Cl)c4)C3(Cl)Cl)ccc2Cl)c1C (relative stereo) [F1128, trans-N-(3-Acetamido-2,4-dimethylphenyl)-2-chloro-5-(2,2-dichloro-3-(3,5-dichlorophenyl)cyclopropane-1-carboxamido)benzamide] has a pest or weed control at 50 µg/cm2 [1] of 50 to 100% and a pest or weed control at 50 µg/cm2 [2] of 50 to 100%.

O=C(Nc1cc(F)c(NC(=O)C(Cl)(Cl)Cl)c(F)c1)c1cc(NC(=O)[C@H]2[C@H](c3ccc(Cl)c(Cl)c3)C2(Cl)Cl)ccc1Cl (relative stereo) [F1146, trans-2-Chloro-5-(2,2-dichloro-3-(3,4-dichlorophenyl)cyclopropane-1-carboxamido)-N-(3,5-difluoro-4-(2,2,2-trichloroacetamido)phenyl)benzamide] showed a pest or weed control at 50 µg/cm2 [1] of 50 to 100% and a pest or weed control at 50 µg/cm2 [2] of 50 to 100%.

O=C(Nc1ccc(F)cc1F)c1cc(NC(=O)[C@H]2[C@@H](c3cc(Cl)c(Cl)c(C(F)(F)F)c3)C2(Cl)Cl)ccc1Cl (relative stereo) [F1148, cis-2-Chloro-5-(2,2-dichloro-3-(3,4-dichloro-5-(trifluoromethyl)phenyl)cyclopropane-1-carboxamido)-N-(2,4-difluorophenyl)benzamide] showed a pest or weed control at 50 µg/cm2 [1] of 50 to 100% and a pest or weed control at 50 µg/cm2 [2] of 50 to 100%.

Compound Cc1cc(NC(=O)[C@H]2[C@H](c3ccc(F)c(Cl)c3)C2(Cl)Cl)cc(C(=O)Nc2ccc(F)c(N)c2F)c1F (relative stereo) [F1151, trans-N-(3-Amino-2,4-difluorophenyl)-5-(2,2-dichloro-3-(3-chloro-4-fluorophenyl)cyclopropane-1-carboxamido)-2-fluoro-3-methylbenzamide] has a pest or weed control at 50 µg/cm2 [1] of 50 to 100% and a pest or weed control at 50 µg/cm2 [2] of 50 to 100%.

In the case of Nc1c(F)ccc(NC(=O)c2cc(NC(=O)[C@H]3[C@H](c4ccc(F)c(Cl)c4)C3(Cl)Cl)cc(F)c2Cl)c1F (relative stereo) [F1156, trans-N-(3-Amino-2,4-difluorophenyl)-2-chloro-5-(2,2-dichloro-3-(3-chloro-4-fluorophenyl)cyclopropane-1-carboxamido)-3-fluorobenzamide], the pest or weed control at 50 µg/cm2 [1] is reported as 50 to 100% and the pest or weed control at 50 µg/cm2 [2] is reported as 50 to 100%.

Compound Cc1cc(NCCC(N)=O)ccc1NC(=O)c1cc(NC(=O)[C@H]2[C@H](c3cc(Cl)cc(Cl)c3)C2(Cl)Cl)ccc1Cl (relative stereo) [F1158, trans-N-(4-((3-Amino-3-oxopropyl)amino)-2-methylphenyl)-2-chloro-5-(2,2-dichloro-3-(3,5-dichlorophenyl)cyclopropane-1-carboxamido)benzamide] has a pest or weed control at 50 µg/cm2 [1] of 50 to 100% and a pest or weed control at 50 µg/cm2 [2] of 50 to 100%.

Work on COCCN(C(=O)OC(C)(C)C)c1ccc(NC(=O)c2cc(NC(=O)[C@H]3[C@H](c4cc(Cl)cc(Cl)c4)C3(Cl)Cl)ccc2Cl)c(C)c1 (relative stereo) [F1159, trans-tert-Butyl-(4-(2-chloro-5-(2,2-dichloro-3-(3,5-dichlorophenyl)cyclopropane-1-carboxamido)benzamido)-3-methylphenyl)(2-methoxyethyl)carbamate] yielded a pest or weed control at 50 µg/cm2 [1] of 50 to 100% and a pest or weed control at 50 µg/cm2 [2] of 50 to 100%.

With Cc1cc(NCc2ccc(C(F)(F)F)cc2)ccc1NC(=O)c1cc(NC(=O)[C@H]2[C@H](c3cc(Cl)cc(Cl)c3)C2(Cl)Cl)ccc1Cl (relative stereo) [F1165, trans-2-Chloro-5-(2,2-dichloro-3-(3,5-dichlorophenyl)cyclopropane-1-carboxamido)-N-(2-methyl-4-((4-(trifluoromethyl)benzyl)amino)phenyl)benzamide] the pest or weed control at 50 µg/cm2 [1] was 50 to 100% and the pest or weed control at 50 µg/cm2 [2] was 50 to 100%.

Work on Nc1c(F)ccc(NC(=O)c2cc(NC(=O)[C@H]3[C@@H](c4cc(F)c(Cl)c(C(F)(F)F)c4)C3(Cl)Cl)ccc2Cl)c1F (relative stereo) [F1168, cis-N-(3-Amino-2,4-difluorophenyl)-2-chloro-5-(2,2-dichloro-3-(4-chloro-3-fluoro-5-(trifluoromethyl)phenyl)cyclopropane-1-carboxamido)benzamide] yielded a pest or weed control at 50 µg/cm2 [1] of 50 to 100% and a pest or weed control at 50 µg/cm2 [2] of 50 to 100%.

COc1c(F)ccc(NC(=O)c2cc(NC(=O)[C@H]3[C@H](c4cc(Cl)cc(Cl)c4)C3(Cl)Cl)ccc2Cl)c1F (relative stereo) [F1171, trans-2-chloro-5-(2,2-dichloro-3-(3,5-dichlorophenyl)cyclopropane-1-carboxamido)-N-(2,4-difluoro-3-methoxyphenyl)benzamide] was tested, and the pest or weed control at 50 µg/cm2 [1] was 50 to 100% and the pest or weed control at 50 µg/cm2 [2] was 50 to 100%.

Work on Cc1cc(NCCc2ccccc2)ccc1NC(=O)c1cc(NC(=O)[C@H]2[C@H](c3cc(Cl)cc(Cl)c3)C2(Cl)Cl)ccc1Cl (relative stereo) [F1177, trans-2-Chloro-5-(2,2-dichloro-3-(3,5-dichlorophenyl)cyclopropane-1-carboxamido)-N-(2-methyl-4-(phenethylamino)phenyl)benzamide] yielded a pest or weed control at 50 µg/cm2 [1] of 50 to 100% and a pest or weed control at 50 µg/cm2 [2] of 50 to 100%.

With Cc1cc(NCC(C)c2ccccc2)ccc1NC(=O)c1cc(NC(=O)[C@H]2[C@H](c3cc(Cl)cc(Cl)c3)C2(Cl)Cl)ccc1Cl (relative stereo) [F1178, trans-2-Chloro-5-(2,2-dichloro-3-(3,5-dichlorophenyl)cyclopropane-1-carboxamido)-N-(2-methyl-4-((2-phenylpropyl)amino)phenyl)benzamide] the pest or weed control at 50 µg/cm2 [1] was 50 to 100% and the pest or weed control at 50 µg/cm2 [2] was 50 to 100%.

For O=C(Nc1ccccc1)c1cc(NC(=O)[C@H]2[C@H](c3ccc(F)c(Cl)c3)C2(Cl)Cl)cc(Cl)c1F (relative stereo) [F1194, trans-3-Chloro-5-(2,2-dichloro-3-(3-chloro-4-fluorophenyl)cyclopropane-1-carboxamido)-2-fluoro-N-phenylbenzamide], the pest or weed control at 50 µg/cm2 [1] was 50 to 100% and the pest or weed control at 50 µg/cm2 [2] was 50 to 100%.

O=C(Nc1ccc(F)cc1)c1cc(NC(=O)[C@H]2[C@H](c3ccc(F)c(Cl)c3)C2(Cl)Cl)cc(Cl)c1F (relative stereo) [F1195, trans-3-Chloro-5-(2,2-dichloro-3-(3-chloro-4-fluorophenyl)cyclopropane-1-carboxamido)-2-fluoro-N-(4-fluorophenyl)benzamide] showed a pest or weed control at 50 µg/cm2 [1] of 50 to 100% and a pest or weed control at 50 µg/cm2 [2] of 50 to 100%.

Work on O=C(Nc1ccc(F)cc1F)c1cc(NC(=O)[C@H]2[C@H](c3ccc(F)c(Cl)c3)C2(Cl)Cl)cc(Cl)c1F (relative stereo) [F1196, trans-3-Chloro-5-(2,2-dichloro-3-(3-chloro-4-fluorophenyl)cyclopropane-1-carboxamido)-N-(2,4-difluorophenyl)-2-fluorobenzamide] yielded a pest or weed control at 50 µg/cm2 [1] of 50 to 100% and a pest or weed control at 50 µg/cm2 [2] of 50 to 100%.

CC(=O)Nc1ccc(NC(=O)c2cc(NC(=O)[C@H]3[C@H](c4ccc(F)c(Cl)c4)C3(Cl)Cl)cc(Cl)c2F)cc1 (relative stereo) [F1197, trans-N-(4-Acetamidophenyl)-3-chloro-5-(2,2-dichloro-3-(3-chloro-4-fluorophenyl)cyclopropane-1-carboxamido)-2-fluorobenzamide] gave a pest or weed control at 50 µg/cm2 [1] of 50 to 100% and a pest or weed control at 50 µg/cm2 [2] of 50 to 100%.
